biological target: T1, Tyrosine-protein phosphatase non-receptor type 22 (Homo sapiens, UniProt Q9Y2R2); experiment: Inhibition of lymphoid specific tyrosine phosphatase
T1 sequence (Q9Y2R2 whole entry): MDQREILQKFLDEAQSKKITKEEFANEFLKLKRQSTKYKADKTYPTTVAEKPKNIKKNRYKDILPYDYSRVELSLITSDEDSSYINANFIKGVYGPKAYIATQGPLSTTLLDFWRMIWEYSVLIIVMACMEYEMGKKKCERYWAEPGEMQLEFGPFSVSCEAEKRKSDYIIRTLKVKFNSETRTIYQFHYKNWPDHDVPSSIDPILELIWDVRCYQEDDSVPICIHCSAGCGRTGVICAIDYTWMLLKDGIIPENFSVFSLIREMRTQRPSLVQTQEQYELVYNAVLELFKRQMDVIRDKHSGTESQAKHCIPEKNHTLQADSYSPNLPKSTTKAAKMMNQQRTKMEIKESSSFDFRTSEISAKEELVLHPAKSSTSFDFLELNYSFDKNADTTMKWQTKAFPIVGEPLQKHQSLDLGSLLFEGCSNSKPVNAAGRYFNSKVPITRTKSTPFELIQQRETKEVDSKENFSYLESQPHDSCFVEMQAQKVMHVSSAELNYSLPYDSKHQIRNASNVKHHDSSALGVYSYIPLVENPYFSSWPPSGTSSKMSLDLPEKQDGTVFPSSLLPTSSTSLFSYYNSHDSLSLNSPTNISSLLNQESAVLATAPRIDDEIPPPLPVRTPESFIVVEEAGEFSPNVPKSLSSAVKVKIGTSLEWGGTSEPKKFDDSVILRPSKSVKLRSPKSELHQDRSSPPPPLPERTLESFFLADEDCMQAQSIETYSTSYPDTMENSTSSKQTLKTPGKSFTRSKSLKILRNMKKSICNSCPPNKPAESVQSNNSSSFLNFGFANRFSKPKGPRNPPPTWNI

IC50, > 44 µM:
O=C(O)Cn1c(O)cn(N=Cc2ccc(-c3ccc(O)c(C(=O)O)c3)s2)c1=O
COC(=O)c1cc(-c2ccc(C=Nn3cc(O)[nH]c3=O)s2)ccc1O
O=C(O)c1cc(-c2ccc(C=Nn3cc(O)[nH]c3=O)o2)ccc1O
COC(=O)c1cc(-c2ccc(C=Nn3cc(O)[nH]c3=O)o2)ccc1O

From BindingDB's records for doi:10.1016/j.bmcl.2008.03.079 (Columbia University, 2008)
